This series can be described thus: gradient 5% acetonitrile 3 min, to 50% in 2 min, to 85% in 15 min, held 3 min, 100 µL/min. Conditions: column: Zorbax Extend-C18 2.1 x 50 mm; eluents: water / acetonitrile, 0.1% formic acid. The essentials: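 In both positive and negative ionization mode, a quadrupole time-of-flight mass spectrometer coupled to HPLC analyzed pure standards run in mixtures of ~100 molecules. The Zorbax Extend-C18 column (2.1 × 50 mm, 1.8 μm) was operated at 100 μL/min with water and acetonitrile, each containing 0.1% formic acid. The dead volume was 40 μL and the dwell volume 900 μL. Retention time came from adduct peaks that were computationally picked and individually inspected by hand.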
`COc1cc(CC(=O)N2CCN(c3cc(C)n4c(C)nnc4n3)CC2)cc(OC)c1` yielded an RP-LC retention time of 576 s.

In the case of `CCCNc1c(C(=O)OC)c(=O)[nH]c2ccc(F)cc12`, the RP-LC retention time was found to be 699 s. `COc1cccc(NC(=O)Cn2c(=O)c(CCC(=O)NCC(C)C)nc3ccccc32)c1` gave an RP-LC retention time of 798 s. As for `CCn1cc(C(=O)Nc2ccccc2F)c2cccnc21`, the figure is 812 s; as for `CCCNC(=O)c1cn(-c2ccc(S(=O)(=O)N3CCCC(C)C3)cn2)cn1` (stereo unspecified), 884 s. As for `CCc1nccn1Cc1nc(-c2cccc(C(F)(F)F)c2)no1`, the figure is 686 s. As for `COc1ccc(NS(=O)(=O)c2cc(-c3[nH]ncc3C(=O)N(C)C)oc2C)c(C)c1`, the figure is 681 s. Molecule `Cc1cc(C)c2c(N3CCSCC3)nc(C(=O)NCC3CCCO3)nc2n1` (stereo unspecified) displayed an RP-LC retention time of 624 s.

Molecule `CC(=O)N1CCc2cc(N3CC(C(=O)NCc4cccnc4)CC3=O)ccc21` (stereo unspecified) displayed an RP-LC retention time of 557 s.

Molecule `CCCSc1nnc(NC(=O)c2c(-c3ccccc3Cl)noc2C)s1` came in with an RP-LC retention time of 956 s. As for `COc1cccc(CNC(=O)CN2CCN(Cc3ccc(C)cc3)C(=O)C2=O)c1`, the figure is 715 s. In the case of `CCCNC(=O)c1cn(-c2cc(-c3nc(C4CC4)no3)ccn2)cn1`, the RP-LC retention time stood at 818 s.

`O=C(NCCN1CCc2ccccc2C1)c1cn2nc(Cl)ccc2n1` had an RP-LC retention time of 618 s. As for `CCCNC(=O)N(C1CCOCC1)C1CCN(S(=O)(=O)c2ccccc2CC)CC1`, the figure is 899 s; as for `O=C(Nc1ccc(F)cc1F)C1CCN(S(=O)(=O)c2cc(C(=O)N3CCCC3)cs2)CC1`, 803 s. In turn, `Cc1ccc(-c2nc3nc(C)cc(NCc4ccc5c(c4)OCO5)n3n2)cc1` yielded an RP-LC retention time of 892 s. As for `CCc1nc2cc(-c3noc(-c4cccc(OC)c4)n3)ccc2o1`, the figure is 1210 s; as for `CC1(C)CC(=O)c2c(nc(N3CCN(c4ncccn4)CC3)nc2Nc2ccccc2)C1`, 1330 s. `Cc1cccc(CN2N=C(C(=O)N3CCC(C)CC3)S(=O)(=O)c3ccccc32)c1` yielded an RP-LC retention time of 1090 s.

Regarding `CCn1cc(-c2ccc(F)cc2)cc1C(=O)N1CCC(C)CC1`, the RP-LC retention time came to 1150 s. As for `CCN1CCCn2cc(S(=O)(=O)Nc3ccc(OC)cc3)cc2C1=O`, the figure is 680 s; as for `COc1cc(NC(=O)c2cnn(-c3ccc(Br)cc3)c2)cc(OC)c1OC`, 931 s; as for `Cn1nnc2ccc(-c3noc(-c4ccccc4)n3)cc21`, 985 s. As for `CCC(C)NC(=O)c1cc(C)[nH]n1` (stereo unspecified), the figure is 623 s. The molecule `CS(=O)(=O)NCCS(=O)(=O)N1CCN(c2ccccc2F)CC1` yielded an RP-LC retention time of 723 s. Consider `O=C(Nc1cccc(C(F)(F)F)c1)Nc1cccn2ncnc12`, for which the RP-LC retention time stood at 896 s.

For the molecule `Cc1ccccc1NC(=O)C1CCCN(c2ccc3cc(S(=O)(=O)N4CCCCC4)ccc3n2)C1` (stereo unspecified), the RP-LC retention time was found to be 835 s. As for `CCc1ccc(CN2CCC([C@@H]3CNC[C@H]3CO)CC2)cc1`, the figure is 558 s. As for `CCC(c1cccs1)N1C(=O)[C@H]2CN(S(=O)(=O)c3ccccc3Cl)C[C@H]2C1=O` (stereo partly specified), the figure is 1000 s; as for `Cc1cc(C)cc(NC(=O)NCCc2cn(CC(C)C)c3ncccc23)c1`, 905 s. As for `Cc1cc(Cl)ccc1NC(=O)N1CCCC1c1nnc2n1CCN(C)CC2` (stereo unspecified), the figure is 584 s. `CCC(NC(=O)c1ccc2c(c1)nc1n2CCN(C2CCCCC2)C1=O)c1cccs1` (stereo unspecified): the RP-LC retention time amounted to 851 s. As for `Cc1cccc(-c2nsc(SCC(=O)N3CCc4ccccc43)n2)c1`, the figure is 1150 s. `O=C([C@@H]1C[C@H](F)CN1S(=O)(=O)c1cc(F)ccc1F)N1CCCCC1`: the RP-LC retention time came to 794 s. As for `Cc1noc(/C=C/c2ccc(S(=O)(=O)N3CCCCC3)s2)c1NC(=O)C1CC1`, the figure is 901 s; as for `Cc1cnc(C2CCC2)n1CC1CCN(C(=O)NC2CCCCC2)CC1`, 657 s; as for `Cc1csc(C(=O)Nc2ccc(N3CCCN(C(=O)C4CC4)CC3)cc2)c1`, 735 s.

`O=C(CN1c2ccc(F)cc2-c2ccccc2S1(=O)=O)NCCN1CCOCC1`: the RP-LC retention time came to 624 s. As for `CNCc1ccc(-c2ccc(Cl)cc2Cl)o1`, the figure is 658 s.

`Cc1cc(N(C)C)nc(N2CCN(C(=O)c3ccc(C(C)(C)C)cc3)CC2)n1` had an RP-LC retention time of 736 s.

`CC(=O)N1CCC(C(=O)Nc2ccc(OCc3nnc(-c4ccccc4)o3)cc2)CC1`: the RP-LC retention time was found to be 712 s. As for `CC(C(=O)NCCN1CCCCC1)n1c(=O)c(C(F)(F)F)nc2ccccc21` (stereo unspecified), the figure is 601 s. As for `CN1c2ccc(F)cc2C(=O)NC12CCN(C(=O)c1cccc(F)c1)CC2`, the figure is 751 s; as for `O=c1c2cc(-c3cccs3)nn2cnn1Cc1nc(-c2ccccc2Br)no1`, 1050 s. As for `Cc1ccc(NC(=O)N2CCC(n3c(C(F)(F)F)nc4cccnc43)CC2)cc1F`, the RP-LC retention time worked out at 944 s. As for `COc1cc(NC(=O)C2(C)CCCCC(=O)N2)cc(OC)c1` (stereo unspecified), the figure is 612 s; as for `Cc1ccc(-c2cn3c(CC(=O)NCCc4ccccc4)csc3n2)cc1C`, 928 s. As for `Cc1ccc(-c2nnc(N3CCC(C(=O)NCCN4CCCCC4C)CC3)o2)cc1` (stereo unspecified), the figure is 624 s. As for `O=C(c1cccc(Cl)c1)N1CCC(Cc2nnc(-c3ccccc3)o2)CC1`, the figure is 891 s; as for `COCCN1C(=O)CCC2(CNC(=O)c3sccc3C)CCCC=C12` (stereo unspecified), 804 s. The molecule `Cc1cccc(NC(=O)N2CCC3(CC2)NC(=O)c2ccc(F)cc2N3C)c1` registered an RP-LC retention time of 723 s. Molecule `CCCCC(=O)Nc1ccc2nc(N3CCN(c4cccc(Cl)c4)CC3)cc(C(=O)O)c2c1` came in with an RP-LC retention time of 758 s.

Consider `Cc1cccc(-c2nnc(CC(=O)NCC(C)C)o2)c1`, for which the RP-LC retention time came out at 790 s. As for `CS(=O)(=O)N1CCC(OC2CCN(C(=O)NCc3ccccc3)CC2)CC1`, the figure is 704 s; as for `COc1cccc(S(=O)(=O)N2CCN(c3cc(C)nc(N4CCOCC4)n3)CC2)c1`, 668 s.

The molecule `CC1CC(=O)N(CC(=O)Nc2ccc3c(c2)OCCO3)c2ccccc2S1` (stereo unspecified) displayed an RP-LC retention time of 859 s. As for `Cc1ccc(-c2noc(CSc3nc4cc5c(cc4c(=O)n3Cc3ccncc3)OCO5)n2)cc1`, the figure is 845 s; as for `CCc1noc2nc(C)n(CC(=O)NCCCc3ccccc3)c(=O)c12`, 832 s. As for `O=C(CCC(=O)N1CC2CCCN2c2ccccc21)NCCCN1CCCC1` (stereo unspecified), the figure is 627 s; as for `O=C(C1CCN(c2ncnc3c2nc2n3CCCCC2)CC1)N1CCN(c2ccccn2)CC1`, 592 s; as for `COc1ncccc1C(=O)NCc1nnc(C)o1`, 579 s. As for `O=C(NCC1CCCO1)c1nc2ccccn2c1-c1ccc(Cl)cc1` (stereo unspecified), the figure is 785 s. Take `Cc1cccc(Oc2nccnc2Sc2ccccc2C(=O)N2CCN(c3ccccn3)CC2)c1`: the RP-LC retention time worked out at 761 s.

The molecule `COCCN(Cc1ccc(F)cc1)Cc1cc(=O)c2cc(F)ccc2[nH]1` yielded an RP-LC retention time of 815 s. As for `CN(C)C(=O)c1ccc2c(c1)CCN2C(=O)C1CCCC1`, the figure is 720 s; as for `CCn1c(=O)c(SCC(=O)NCCN(C)Cc2ccccc2)nc2ccccc21`, 641 s; as for `CCOc1ccc(-c2csc3c(=O)n(Cc4cccnc4)cnc23)cc1OCC`, 699 s. As for `O=C(Cn1cnc2nc(N3CCCC(C(=O)NC4CC4)C3)sc2c1=O)NCc1ccccc1` (stereo unspecified), the figure is 646 s.

The molecule `CCCc1noc(-c2ccnc(-n3cnc(C(=O)NC(C)C)c3)c2)n1` registered an RP-LC retention time of 849 s. As for `O=C1CC(c2nc(-c3ccc4c(c3)OCO4)no2)CN1c1ccc2c(c1)OCCO2` (stereo unspecified), the figure is 895 s. As for `COc1cccc(-c2nc(C3CCN(S(=O)(=O)c4cccc(C)c4)CC3)no2)c1`, the figure is 1150 s; as for `Cc1nc(-c2csc(S(=O)(=O)N3CCC(C(=O)NCCc4ccccc4)CC3)c2)no1`, 1060 s. `Cc1nc(-c2cccc(NC(=O)c3ccc(-n4ccnc4C)nn3)c2)cs1` returned an RP-LC retention time of 581 s. As for `CCC(=O)N1CCc2cc(N3CC(C(=O)N4CCN(C)CC4)CC3=O)ccc21` (stereo unspecified), the figure is 563 s. As for `Cc1ccc(C)c(Cn2nc(-c3nc(C(C)(C)C)no3)ccc2=O)c1`, the figure is 1170 s; as for `COCCN1CC(CO)C2(CCN(Cc3ccc(F)c(Cl)c3)CC2)C1` (stereo unspecified), 550 s; as for `COc1ccc(Cl)cc1NC(=O)NCCC1CCN(S(=O)(=O)c2ccc(F)cc2)CC1`, 1030 s. As for `CCN(CC)S(=O)(=O)c1ccc2c(c1)N(CC(=O)NCc1ccc(C)o1)C(=O)C1CCCCN21` (stereo unspecified), the figure is 959 s. In turn, `Cc1cc(NC(C)C)n2c(nc3ccccc32)c1C#N` gave an RP-LC retention time of 610 s. The molecule `Cc1cccc(-n2nnc(C(=O)O)c2-c2ccncc2)c1` came in with an RP-LC retention time of 620 s.

Turning to `CC(C)NC(=O)N1CCC(N2C(=O)C3(CCCC3)C2c2ccccc2)CC1` (stereo unspecified), the RP-LC retention time is 837 s.

The record behind these values is the METLIN SMRT retention time set (Domingo-Almenara et al. 2019).
